# Experiments:
# [1] = system: Carrageenin edema (right-hind paw); assay: Anti-inflammatory activity; Carrageenin edema (C.E. Method); format: in vivo, rats (Jcl: SD, male); conditions: rat, oral, 1 h before carrageenin; edema measured 3 hr later; dose not given
# Procedure: A. Anti-inflammatory activity; Carrageenin edema (C.E. Method)
# The anti-inflammatory activities of test compounds were estimated in a group [Six Jcl: SD rats (male, weighing 180-220 g)] by the method of Winter et al. [Proc. Soc. Exp. Biol. 111, 544 (1962)].
# After measuring the volume of the right-hind paw (a), the rats were given orally 5 ml of water. One hour after oral administration of the test compounds, 0.05 ml each of a 1% carrageenin solution in physiological saline was subcutaneously injected at the sole of right-hind paw. Three hr. later, the volume of the right-hind paw was measured (b). The volume of edema was obtained from the difference […] between the two volumes. By comparing the volume of edema of the group, to which test compound was administered, with that of the group, to which no test compound was administered, an inhibitory effect of the compound on the edema was determined.
# [2] = system: Water-immersion stress-induced gastric ulcer; assay: Water-immersion stress-induced gastric ulcer (W.I. Method); format: in vivo, rats (SD, male); conditions: for W.I. Method (inhibition ratio of ulcer index): rat, 50 mg/kg, 23° C. water immersion for five hours; for anti-ulcer action: statement in words
# Procedure: C. Water-immersion stress-induced gastric ulcer (W.I. Method)
# Male SD rats (7-weeks old, weighing 190-240 g) were used after a 24 hr. fast in groups of six animals. According to the method of Takagi and Okabe [Jpn. J. Pharmacol., 18, 9 (1968)], the animals were placed in a stress cage made of stainless steel and immersed vertically to the level of xiphoid process in a water bath maintained at 23° C. for five hours. The length (mm) of individual lesions in fundic mucosa was measured under a dissecting microscope with a 1-mm square-grid eye piece (X10), and the sum of the length of individual lesions for each stomach was used as an ulcer index. The ulcer index of the test group was compared with that of the control group, and the inhibition ratio was calculated.
# mice = assay: Acute toxicity Test in mice; format: in vivo, mice (ICR, male); conditions: mouse, oral, 500 mg/kg, one week, groups of five
# Procedure: D. Acute toxicity Test in mice
# Five-weeks old ICR-male mice were used in groups of five animals. Each animal was orally administered with 500 mg/kg of each test compound. Then, during the subsequent one week, the number of dead animals was counted.
# [3] = system: Phenylquinone writhing syndrome; assay: Analgesic action: Phenylquinone writhing syndrome (P.Q. Method); format: in vivo, mice (Slc:ICR, male); conditions: for P.Q. Method (inhibitory effect on writhing and stretching): mouse, oral, 30 minutes before phenylquinone; for analgesic action: statement in words
# Procedure: B. Analgesic action: Phenylquinone writhing syndrome (P.Q. Method)
# The test was conducted by following the method Siegmund et al. [Proc. Soc. exp. Biol. Med. 95, 729 (1957).] employing a group [ten Slc:ICR mice (male, 4-weeks old, weighing 20±2 g)]. Test compounds were administered orally 30 minutes before intraperitoneal injection of 0.02% phenylquinone by 0.1 ml/body weight of 10 g. Then, the frequency of responses, i.e. writhing and stretching was counted in each animal for 20 minutes. The average frequencies in the test group and the control group were compared, and an inhibitory effect of the compounds on this response was determined.
# anti-pyretic action = format: in vivo; conditions: statement in words, no test data
# [4] = system: thromboxane A2 (TXA2) synthetase; assay: thromboxane A2 (TXA2) synthetase inhibiting action; format: biochemical; conditions: statement in words, no test data
# platelet aggregation = platelet aggregation controlling (inhibiting) action; format: cell-based; conditions: statement in words, no test data
Structure (SMILES),C.E. Method (inhibitory effect on the carrageenin edema) [1],W.I. Method (inhibition ratio of ulcer index) [2],Acute Toxicity (number of dead animals / animals) (mice),P.Q. Method (inhibitory effect on writhing and stretching) ([3]; 50 mg/kg),anti-ulcer action [2],anti-pyretic action (anti-pyretic action),analgesic action [3],further results
"COc1ccc(-c2nc(N)sc2-c2cccnc2)cc1 [compound 2, 2-amino-4-(4-methoxyphenyl)-5-(3-pyridyl)-1,3-thiazole]",77.1,70,0/5,52.6,–,–,–,–
"COc1ccc(-c2nc(N)sc2-c2cccnc2)cc1 [2-amino-4-(4-methoxyphenyl)-5-(3-pyridyl)-1,3-thiazole]",–,–,–,–,particularly excellent,particularly excellent,particularly excellent,–
"CNc1nc(-c2ccc(OC)cc2)c(-c2cccnc2)s1 [Compound No. 1, 4-(4-methoxyphenyl)-2-methylamino-5-(3-pyridyl)-1,3-thiazole]",60,86,0/5,–,particularly excellent,particularly excellent,particularly excellent,P.Q. Method (inhibitory effect on writhing and stretching) ([3]; 25 mg/kg): 96.8
"CNc1nc(-c2ccc3c(c2)CCC3)c(-c2cccnc2)s1 [compound 79, 4-(5-indanyl)-2-methylamino-5-(3-pyridyl)-1,3-thiazole]",–,–,–,–,particularly excellent,particularly excellent,particularly excellent,–
Nc1nc(-c2ccccc2)c(-c2cccnc2)s1 [Compound No. 4],63.7,74,0/5,78.9,–,–,–,–
"CCc1nc(-c2ccc(OC)cc2)c(-c2cccnc2)s1 [2-ethyl-4-(4-methoxyphenyl)-5-(3-pyridyl)-1,3-thiazole]",–,–,–,–,particularly excellent,particularly excellent,particularly excellent,–
"CCNc1nc(-c2ccc3c(c2)CCC3)c(-c2cccnc2)s1 [2-ethylamino-4-(5-indanyl)-5-(3-pyridyl)-1,3-thiazole]",–,–,–,–,particularly excellent,particularly excellent,particularly excellent,–
"COc1ccc(-c2nc(CCCC(=O)O)sc2-c2cccnc2)cc1 [compound 43, 2-(3-carboxypropyl)-4-(4-methoyphenyl)-5-(3-pyridyl)-1,3-thiazole]",–,–,–,–,–,–,–,thromboxane synthetase inhibiting action [4]: particularly excellent
O=C(O)CCCc1nc(-c2ccccc2)c(-c2cccnc2)s1,–,–,–,–,–,–,–,thromboxane synthetase inhibiting action [4]: particularly excellent
Nc1nc(-c2ccccc2)c(-c2ccccn2)s1 [compound 13],7.0,66,0/5,67.5,–,–,–,–
"COc1ccc(-c2nc(-c3ccccc3)sc2-c2cccnc2)cc1 [2-phenyl-4-(4-methoxyphenyl)-5-(3-pyridyl)-1,3-thiazole]",–,–,–,–,–,–,–,platelet aggregation controlling action (platelet aggregation): partienlarly excellent
"CCNc1nc(-c2ccc3c(c2)OCO3)c(-c2cccnc2)s1 [2-ethylamino-4-(3,4-methylenedioxyphenyl)-5-(3-pyridyl)-1,3-thiazole]",–,–,–,–,particularly excellent,particularly excellent,particularly excellent,–
COc1ccc(-c2nc(N)sc2-c2ccncc2)cc1 [compound 17],48.2,79,0/5,80.7,–,–,–,–
"COc1ccc(-c2nc(C3CCCCC3)sc2-c2cccnc2)cc1 [2-cyclohexyl-4-(4-methoxyphenyl)-5-(3-pyridyl)-1,3-thiazole]",–,–,–,–,–,–,–,platelet aggregation controlling action (platelet aggregation): partienlarly excellent
"c1ccc(-c2nc(C3CCCCC3)sc2-c2cccnc2)cc1 [2-cyclohexyl-4-phenyl-5-(3-pyridyl)-1,3-thiazole]",–,–,–,–,–,–,–,platelet aggregation controlling action (platelet aggregation): partienlarly excellent
"COc1ccc(-c2nc(-c3ccccc3)sc2-c2cccnc2)cc1 [compound 28, 2-phenyl-4-(4-methoxyphenyl)-5-(3-pyridyl)-1,3-thiazole]",15.7,33,0/5,63.3,–,–,–,–
"CNc1nc(-c2ccc3c(c2)OCO3)c(-c2cccnc2)s1 [2-methylamino-4-(3,4-methylenedioxyphenyl)-5-(3-pyridyl)-1,3-thiazole]",–,–,–,–,particularly excellent,particularly excellent,particularly excellent,–
Nc1nc(-c2ccc(O)cc2)c(-c2cccnc2)s1 [compound 9],16.9,71,0/5,40.5,–,–,–,–
